Measured values from article PMC4520450, “Procyanidins Negatively Affect the Activity of the Phosphatases of Regenerating Liver” (PLoS ONE, 2015).

Legend:
PP1 = biological target: T1, PP1 (Oryctolagus cuniculus, UniProt P62139); test: DiFMUP assay for PP1; format: biochemical; conditions: 2 mU PP1c, 30 min preincubation, 25°C, DiFMUP, no BSA; mean ± SEM (n = 3–5); read-out: IC50 (Ki) PP1
T1 construct: purchased NewEngland Biolabs; host or cells: E. coli
Method: (§1) Fig 2 Effect of polyphenolic compounds 8 (A), 9 (B), 10 (C) and 11 (D) on the phosphatase activity of PRL-1, PRL-2, PRL-3, PP1, and PP2A. Proteins were incubated for 30 min with 0–1000 μM of the corresponding procyandin 8–11. Phosphatase activity was measured in the presence of DiFMUP at 25°C using the concentration corresponding to the KM of each protein. The KM for PRLs was determined separately (PRL-3 = 21 μM, PRL-2 and PRL-1 = 24 μM). The KM for PP1 (91 μM) and for PP2A (100 μM) was taken from the literature. Protein concentrations are 50 nM for all PRLs and 2 mU for PP1 and 0.05 U for PP2A (see the Experimental Procedures). Phosphatase activity in the absence of inhibitors was set as 100%. Data represent means ± standard errors of the mean (n = 3–5).
(§2) BSA, which is usually supplemented to the assay buffer for stabilizing the PPs was however excluded, as BSA is known to form complexes with polyphenolic compounds [40–42] and thus would decrease the concentrations of the inhibitor in the assay. […] In contrast, the phosphatase activity of PP2A was suppressed to a much lesser extent with weak (for trimer 9 and hexamer 11) and strong statistical significance (dimer 8 and tetramer 10). Thus our results corroborate the data reported previously.
DiFMUP assay for PP1: In a final reaction volume of 100 μL PP1c (2 mU final concentration, according to manufacturer’s instructions) were incubated with decreasing concentrations of the inhibitory polyphenols for 30 minutes at 25°C. The assay buffer contained 25 mM imidazole (pH 7.4), 1 mM dithiothreitol (DTT), and 50 mM NaCl. Bovine serum albumin (BSA) was excluded due to possible binding of the polyphenolic compounds. After the incubation time 20 μL DiFMUP (6,8-Difluoro-4-methylumbelliferyl phosphate) was added to reach a final concentration of 100 μM. Monitoring of the fluorescent dephosphorylation product was monitored and data analyzed as described above.

PP2A = biological target: T2, PP2A (Homo sapiens, UniProt P67775); test: DiFMUP assay for PP2A; format: biochemical; conditions: 0.05 U PP2A, 30 min preincubation, 25°C, no BSA, mean ± SEM (n = 3–5), read-out: IC50 (Ki) PP2A
T2 construct: purified from human red blood cells; purchased Merck Millipore; host or cells: human red blood cells
T2 sequence (P67775 whole entry): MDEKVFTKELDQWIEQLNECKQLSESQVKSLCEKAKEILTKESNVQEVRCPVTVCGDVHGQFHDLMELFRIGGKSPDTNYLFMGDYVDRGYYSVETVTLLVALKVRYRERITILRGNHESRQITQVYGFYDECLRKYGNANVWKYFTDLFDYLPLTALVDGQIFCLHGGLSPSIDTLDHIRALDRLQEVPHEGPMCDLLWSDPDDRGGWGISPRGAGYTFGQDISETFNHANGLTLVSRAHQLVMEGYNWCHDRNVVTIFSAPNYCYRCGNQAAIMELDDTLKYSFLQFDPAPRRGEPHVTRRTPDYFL
T2 sequence (P30153 2-589 partner limits assumed): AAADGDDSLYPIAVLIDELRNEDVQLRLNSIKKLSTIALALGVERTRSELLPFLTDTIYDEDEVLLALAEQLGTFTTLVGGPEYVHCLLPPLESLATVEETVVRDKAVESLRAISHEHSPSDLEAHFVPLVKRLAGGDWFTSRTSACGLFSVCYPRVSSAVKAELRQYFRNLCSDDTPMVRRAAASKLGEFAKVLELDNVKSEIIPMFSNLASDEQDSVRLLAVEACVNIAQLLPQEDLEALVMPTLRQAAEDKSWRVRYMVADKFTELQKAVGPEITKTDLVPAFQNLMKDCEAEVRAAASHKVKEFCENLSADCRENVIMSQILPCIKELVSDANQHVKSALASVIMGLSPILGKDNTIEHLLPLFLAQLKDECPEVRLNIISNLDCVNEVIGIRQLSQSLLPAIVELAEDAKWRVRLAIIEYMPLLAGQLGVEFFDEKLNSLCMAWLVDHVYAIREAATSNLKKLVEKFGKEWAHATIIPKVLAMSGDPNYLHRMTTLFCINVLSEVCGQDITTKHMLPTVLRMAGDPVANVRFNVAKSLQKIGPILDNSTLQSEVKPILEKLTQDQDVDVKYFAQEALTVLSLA
Method: as §1, §2
Chemicals and vendors were as follows: Synthesis of Procyanidins (dimer to dodecamer) was done as previously reported. EGCG, EGC, ECG and EC were synthesized as previously reported or purchased from Sigma. (+)-Catechin and 3-(4,5-dimethylthiazol-2-yl)-2,5-diphenyltetrazolium bromide (MTT) were obtained from Sigma. 6,8-Difluoro-4-Methylumbelliferyl Phosphate (DiFMUP), propidium iodide and calcein AM were from lifescience technologies. Cell dissociation solution (10X) was purchased from amsbio. PP1c (recombinant from E. coli) was purchased from NewEngland Biolabs and PP2A (purified from human red blood cells, contains different subunits according to manufacturer) from Merck Millipore. Transwell plates (BRANDplates) and insert stripes for the migration assay were purchased from Brand GmbH. Black 96 well plates (96F Nunclon Delta) were purchased from Thermo Scientific. Transparent 96 well assay plates with UV transparent bottom were purchased from Corning Inc. Wound healing experiments were carried out with μ-dish 35 mm culture inserts, which were purchased from Ibidi.
DiFMUP assay for PP2A: In a final reaction volume of 100 μL PP2A (0.05 U final concentration, according to manufacturer’s instructions) were incubated with decreasing concentrations of the inhibitory polyphenols for 30 minutes at 25°C. The assay buffer contained 50 mM TrisCl (pH 7.5), 250 mM NaCl, 0.1 mM EDTA, 1 mM MnCl2, and 2 mM dithiothreitol (DTT). […] Monitoring of the fluorescent dephosphorylation product was monitored and data analyzed as described above.

T1 sequence (P62139 whole entry): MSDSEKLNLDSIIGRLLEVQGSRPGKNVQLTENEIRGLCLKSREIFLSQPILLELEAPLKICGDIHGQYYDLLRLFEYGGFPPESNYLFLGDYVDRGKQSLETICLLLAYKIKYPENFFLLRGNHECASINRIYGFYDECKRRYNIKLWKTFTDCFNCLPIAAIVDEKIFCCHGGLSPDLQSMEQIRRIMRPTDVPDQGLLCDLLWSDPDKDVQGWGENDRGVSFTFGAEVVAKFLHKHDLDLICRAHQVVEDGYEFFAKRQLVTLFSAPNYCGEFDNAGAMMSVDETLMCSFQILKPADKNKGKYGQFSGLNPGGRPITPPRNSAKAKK

Compound | IC50 (PP1) [µM] | IC50 (PP2A) [µM]
Oc1cc(O)c2c(c1)O[C@H](c1ccc(O)c(O)c1)[C@@H](O)[C@@H]2c1c(O)cc(O)c2c1O[C@H](c1ccc(O)c(O)c1)[C@@H](O)C2 [Procyanidin B3 (8), Procyanidin B3] | 383 ± 43 | > 1000
Oc1cc(O)c2c(c1)O[C@H](c1ccc(O)c(O)c1)[C@@H](O)[C@@H]2c1c(O)cc(O)c2c1O[C@H](c1ccc(O)c(O)c1)[C@@H](O)[C@@H]2c1c(O)cc(O)c2c1O[C@H](c1ccc(O)c(O)c1)[C@@H](O)C2 [Procyanidin C2 (9), Procyanidin C2] | 88 ± 13.7 | 213 ± 72
